These results are taken from patent US9260468B1, “2,3′-anhydro-2′-deoxy-5-fluorouridine derivatives with cytotoxic activity, a manufacturing process and application” (ADAM MICKIEWICZ UNIVERSITY, priority 2014, dated 2016).

The nature of series [1]: Cytotoxicity test with sulphorhodamine B, normal fibroblasts. Format: cell-based. As to conditions: human, normal human dermal fibroblasts (HDF), normal cells, 72 hours incubation, read-out: Cytotoxic activity, IC50, Fibroblasts (HDF). On the procedure: (§1) Cytotoxic activity tests were performed using the following cancer cell lines: MCF-7 (breast cancer), HeLa (cervical cancer) A549 (lung cancer) and KB (nasopharynx cancer) and normal cells (human dermal fibroblasts, HDF) obtained from ECACC (European Collection of Cell Cultures).
(§2) Cytotoxicity tests were carried out using a standard procedure with sulphorhodamine B. They involved incubation of the cancer cell lines in the logarithmic growth phase for 72 hours with the compound tested and, subsequently, spectrophotometric determination of the degree of cell growth inhibition using adsorption of a dye (sulphorhodamine B) which binds cellular proteins. The determination was carried out according to a procedure reported in: Vichai, V., Kirtikara, K. Nature Protocols, 2006, 1, 1112.
(§3) Cells of the cell line tested in the logarithmic growth phase were seeded onto 24-well plates in a quantity of 20.000 cells/2 mL of the growth medium per well and, subsequently, incubated in an incubator at 37° C., in the 5% CO2 atmosphere for 24 hours.
Solutions of the test compounds were prepared in DMSO in the following concentrations: 0.05; 0.1; 0.5; 1; 5; 10; 50; 100; 500 μM. […]

Another series concerns KB (nasopharynx cancer). Briefly: Cytotoxicity test with sulphorhodamine B, KB line. Format: cell-based. As to conditions: for SI, KB: SI = IC50 normal cell line (fibroblasts) / IC50 KB. On the procedure:
as §1, §2, §3
(§4) Solutions of the test compounds were prepared in DMSO in the following concentrations: 0.05; 0.1; 0.5; 1; 5; 10; 50; 100; 500 μM.
(§5) The cells of the lines tested were treated with the solutions of the test compounds in a laminar-flow chamber which ensured sterile working conditions according to the following procedure: the first three wells were used as a control: they contained 20 μL of DMSO only; successive solutions of the test compound were added to subsequent wells (20 μL), starting with the lowest concentration (three wells for each concentration level). Subsequently, the plates were placed in an incubator at 37° C. for 72 hours. After the end of incubation, the adhered cells were fixed by adding 500 μL of cold (4° C.) 50% trichloroacetic acid (TCA) and incubated at 4° C. for 1 hour. Subsequently, each well was rinsed with sterile water and dried. The rinsing was repeated five times. The fixed cells were stained for 30 minutes by adding 500 μL of 0.4% dye solution (sulphorhodamine B) dissolved in 1% acetic acid. Any unbound dye was removed by decanting it from the plate, and the cells were washed 4 times with 1% acetic acid. Subsequently, the plates were dried in air for approx. 5 minutes. Bounded dye was dissolved by adding 1500 μL of 10 mM Tris-base buffer (trishydroxymethylaminomethane) to each well and shaken using an orbital shaker for 5 minutes. Subsequently, 200 μL of solution from each well was transferred to each of two wells on a new 96-well plate and absorption of the solutions was determined spectrophotometrically at a wavelength of 490-530 nm using a plate reader.
(§6) Cytotoxicity tests for the other compounds and cell lines were performed following an identical procedure.
(§7) The MCF-7 line was grown in Dulbecco's Modified Eagle's Medium (DME) from Sigma (cat. no. D5796), while the HeLa, A549 and KB lines were grown in RPMI-1640 Medium from Sigma (cat. no. R8758).
(§8) IC50 values, being concentration of a compound needed to obtain 50% inhibition of cell growth, were determined for all the derivatives tested.

Another series concerns MCF-7 (breast cancer). Briefly: Cytotoxicity test with sulphorhodamine B, MCF-7 line. Format: cell-based. As to conditions: for SI, MCF-7: SI = IC50 normal cell line (fibroblasts) / IC50 MCF-7. As for the experimental part:
as §1, §2, §3, §4, §5, §6, §7, §8

A further series has as its system HeLa (cervical cancer). Briefly: Cytotoxicity test with sulphorhodamine B, HeLa line. Format: cell-based. As to conditions: for SI, HeLa: SI = IC50 normal cell line (fibroblasts) / IC50 HeLa. As for the experimental part: as §1, §2, §3, §4, §5, §6, §7, §8
A further series has as its system A549 (lung cancer). Briefly: Cytotoxicity test with sulphorhodamine B, A549 line. The series is classed as cell-based. To be noted: for IC50: Homo sapiens. As for the experimental part:
as §1, §2, §3, §4, §5, §6, §7, §8

The next series concerns Huh-7 line. As to conditions: literature (Srivastav et al. 2010); cited from earlier work.
The test system of a further series is HBV. As to conditions: literature (Srivastav et al. 2010); cited from earlier work.
Setting [2] is: 72 h, read-out: Cytotoxic activity, IC50, KB (nasopharynx cancer).
Where [3] appears, read: read-out: Cytotoxic activity class, KB (nasopharynx cancer).
[4] abbreviates: Homo sapiens, MCF7, 72 h, read-out: Cytotoxic activity, IC50, MCF-7 (breast cancer).
Where [5] appears, read: Homo sapiens, MCF7, read-out: Cytotoxic activity class, MCF-7 (breast cancer).
[6] abbreviates: Homo sapiens, HeLa, 72 h, read-out: Cytotoxic activity, IC50, HeLa (cervical cancer).
[7] abbreviates: Homo sapiens, HeLa, read-out: Cytotoxic activity class, HeLa (cervical cancer).
Where [8] appears, read: class A/MA/NA by IC50 in μg/mL, read-out: Cytotoxic activity class, KB (nasopharynx cancer).
Where [9] appears, read: A549, class A/MA/NA by IC50 in μg/mL, read-out: Cytotoxic activity class, A549 (lung cancer).
[10] abbreviates: Homo sapiens, MCF7, class A/MA/NA by IC50 in μg/mL, read-out: Cytotoxic activity class, MCF-7 (breast cancer).
The mark [11] stands for this setting: Homo sapiens, HeLa, class A/MA/NA by IC50 in μg/mL, read-out: Cytotoxic activity class, HeLa (cervical cancer).
The mark [12] stands for this setting: 72 hours incubation, sulphorhodamine B, average of three determinations.

Molecules are shown by their SMILES. Several values for one entry are separate records, joined by “and”; a condition that tells them apart may be missing. Identical values can stand only once. Like-named read-outs stand apart in the source and are kept apart here. Some results are limits rather than exact numbers.

With `O=c1nc2n(cc1F)C1CC(O2)C(COP(=O)(NCCF)Oc2ccc(Cl)cc2)O1` (centres unmarked) [MFEAdFU], the IC50 at 72 h in series [1] was 43.1 µg/mL and 92.9 µM. The IC50 with KB (nasopharynx cancer) (setting [2]) was 12.2 µg/mL and 26.3 µM; in the series on KB (nasopharynx cancer) (setting [3]), 4 to 30 µg/mL; with MCF-7 (breast cancer) (setting [4]) it was 11.8 µg/mL and 25.4 µM; in the series with MCF-7 (breast cancer) (setting [5]), 4 to 30 µg/mL; in the series on HeLa (cervical cancer) (setting [6]), 16 µg/mL and 34.5 µM; in the series on HeLa (cervical cancer) (setting [7]), 4 to 30 µg/mL. Moreover, in the series with KB (nasopharynx cancer), the “SI, KB” value is listed as 3.5. Further, the “SI, MCF-7” value in the series with MCF-7 (breast cancer) was found to be 3.7. For the same compound, in the series with HeLa (cervical cancer), the “SI, HeLa” value is reported as 2.7.

As to `O=c1[nH]cc(F)c(=O)[nH]1` [5-fluorouracil, reference compound], the IC50 with KB (nasopharynx cancer) (setting [8]), in the series on A549 (lung cancer) (setting [9]), in the series on MCF-7 (breast cancer) (setting [10]) and with HeLa (cervical cancer) (setting [11]) was less than 4 µg/mL throughout.

As to `O=c1nc2n(cc1F)C1CC(O2)C(COP(=O)(NCC(F)(F)F)Oc2ccc(Cl)cc2)O1` (centres unmarked) [FEAdFU, 2,3′-anhydro-2′-deoxy-5-fluorouridine 5′-[N-(2,2,2-trifluoroethyl)-O-(4-chlorophenyl)]phosphate], the IC50 at 72 h in series [1] is 6 µg/mL and 12 µM. Further, the IC50 was 400 nM and 0.2 µg/mL in the series on KB (nasopharynx cancer) (setting [2]); less than 4 µg/mL in the series on KB (nasopharynx cancer) (setting [3]); 400 nM and 0.2 µg/mL with A549 (lung cancer) (A549, 72 h, read-out: Cytotoxic activity, IC50, A549 (lung cancer)); less than 4 µg/mL in the series with A549 (lung cancer) (A549, read-out: Cytotoxic activity class, A549 (lung cancer)); 240 nM and 0.12 µg/mL in the series on MCF-7 (breast cancer) (setting [4]); less than 4 µg/mL in the series on MCF-7 (breast cancer) (setting [5]). Besides, the IC50 was 360 nM and 0.18 µg/mL with HeLa (cervical cancer) (setting [6]); less than 4 µg/mL with HeLa (cervical cancer) (setting [7]). The “SI, KB” value with KB (nasopharynx cancer) is reported as 30. The “fold higher cytotoxicity than 5FU, KB” value in the series with KB (nasopharynx cancer) (versus 5FU) is “more than 55 fold”. Besides, the “fold higher cytotoxicity than 5FdU, KB” value in the series on KB (nasopharynx cancer) (versus 5FdU) is “more than 34 fold”. The “fold higher cytotoxicity than AdFU, KB” value in the series with KB (nasopharynx cancer) (versus AdFU) worked out at 120 fold. The “SI, A549” value with A549 (lung cancer) (SI = IC50 normal cell line (fibroblasts) / IC50 A549) came to 30. In addition, in the series on A549 (lung cancer) (versus 5FU), the “fold higher cytotoxicity than 5FU, A549” value is recorded as “more than 53 fold”. For the same compound, in the series on A549 (lung cancer) (versus 5FdU), the “fold higher cytotoxicity than 5FdU, A549” value is given as “more than 33 fold”. Further, the “SI, MCF-7” value in the series on MCF-7 (breast cancer) was 50. For the same compound, the “fold higher activity than 5FU, MCF-7” value in the series with MCF-7 (breast cancer) (versus 5FU) is on record as “more than 75 fold”. Besides, the “fold higher activity than 5FdU, MCF-7” value with MCF-7 (breast cancer) (versus 5FdU) was “more than 47 fold”. The “fold higher activity than AdFU, MCF-7” value with MCF-7 (breast cancer) (versus AdFU) is 67 fold. Moreover, the “SI, HeLa” value in the series with HeLa (cervical cancer) was 33 and 33.3. The “fold higher cytotoxicity than 5FU, HeLa” value in the series with HeLa (cervical cancer) (versus 5FU) was “more than 58 fold”. The “fold higher cytotoxicity than 5FdU, HeLa” value with HeLa (cervical cancer) (versus 5FdU) is given as “more than 36 fold”. Moreover, the “fold higher cytotoxicity than AdFU, HeLa” value with HeLa (cervical cancer) (versus AdFU) was “more than 133 fold”.

As to `O=c1nc2n(cc1F)[C@H]1C[C@@H](O2)[C@@H](CO)O1` [2,3′-anhydro-2′-deoxy-5-fluorouridine], the “cytotoxic activity against the Huh-7 line, IC50” value in the series with Huh-7 line is more than 200 µg/mL. For the same compound, the “Cytotoxic activity, IC50, KB (nasopharynx cancer)” value with KB (nasopharynx cancer) (setting [12]) came out at 11.0 µg/mL. Also, the IC50 with KB (nasopharynx cancer) (72 hours incubation, sulphorhodamine B, read-out: Cytotoxic activity, IC50, KB (nasopharynx cancer)) was 48.2 µM; in the series with KB (nasopharynx cancer) (setting [8]), 4 to 30 µg/mL; in the series on MCF-7 (breast cancer) (72 hours incubation, sulphorhodamine B, read-out: Cytotoxic activity, IC50, MCF-7 (breast cancer)), 16.2 µM; with HeLa (cervical cancer) (72 hours incubation, sulphorhodamine B, read-out: Cytotoxic activity, IC50, HeLa (cervical cancer)), 48.2 µM. Further, the “antiviral activity against HBV” value with HBV is “weak antiviral activity”. The “Cytotoxic activity, IC50, MCF-7 (breast cancer)” value in the series with MCF-7 (breast cancer) (setting [12]) is 3.7 µg/mL. Besides, in the series on MCF-7 (breast cancer) (class A/MA/NA by IC50 in μg/mL), the “Cytotoxic activity class, MCF-7 (breast cancer)” value was “A (IC50<4 μg/mL are generally assumed as active)”. In the series on HeLa (cervical cancer) (setting [12]), the “Cytotoxic activity, IC50, HeLa (cervical cancer)” value amounted to 11.0 µg/mL. Moreover, the “Cytotoxic activity class, HeLa (cervical cancer)” value in the series with HeLa (cervical cancer) (class A/MA/NA by IC50 in μg/mL) is recorded as “MA (IC50 range of 4-30 μg/mL are considered medium active)”.

Consider `O=c1[nH]c(=O)n([C@H]2C[C@H](O)[C@@H](CO)O2)cc1F` [5-fluoro-2′-deoxyuridine, reference compound], for which the IC50 with KB (nasopharynx cancer) (setting [8]), with A549 (lung cancer) (setting [9]), in the series on MCF-7 (breast cancer) (setting [10]) and with HeLa (cervical cancer) (setting [11]) was less than 4 µg/mL in each case.
